This test has as its target T1, human TRPC6 (Homo sapiens, UniProt Q9Y210).
T1 construct: expressed in transfected cells
T1 sequence (Q9Y210 1-931): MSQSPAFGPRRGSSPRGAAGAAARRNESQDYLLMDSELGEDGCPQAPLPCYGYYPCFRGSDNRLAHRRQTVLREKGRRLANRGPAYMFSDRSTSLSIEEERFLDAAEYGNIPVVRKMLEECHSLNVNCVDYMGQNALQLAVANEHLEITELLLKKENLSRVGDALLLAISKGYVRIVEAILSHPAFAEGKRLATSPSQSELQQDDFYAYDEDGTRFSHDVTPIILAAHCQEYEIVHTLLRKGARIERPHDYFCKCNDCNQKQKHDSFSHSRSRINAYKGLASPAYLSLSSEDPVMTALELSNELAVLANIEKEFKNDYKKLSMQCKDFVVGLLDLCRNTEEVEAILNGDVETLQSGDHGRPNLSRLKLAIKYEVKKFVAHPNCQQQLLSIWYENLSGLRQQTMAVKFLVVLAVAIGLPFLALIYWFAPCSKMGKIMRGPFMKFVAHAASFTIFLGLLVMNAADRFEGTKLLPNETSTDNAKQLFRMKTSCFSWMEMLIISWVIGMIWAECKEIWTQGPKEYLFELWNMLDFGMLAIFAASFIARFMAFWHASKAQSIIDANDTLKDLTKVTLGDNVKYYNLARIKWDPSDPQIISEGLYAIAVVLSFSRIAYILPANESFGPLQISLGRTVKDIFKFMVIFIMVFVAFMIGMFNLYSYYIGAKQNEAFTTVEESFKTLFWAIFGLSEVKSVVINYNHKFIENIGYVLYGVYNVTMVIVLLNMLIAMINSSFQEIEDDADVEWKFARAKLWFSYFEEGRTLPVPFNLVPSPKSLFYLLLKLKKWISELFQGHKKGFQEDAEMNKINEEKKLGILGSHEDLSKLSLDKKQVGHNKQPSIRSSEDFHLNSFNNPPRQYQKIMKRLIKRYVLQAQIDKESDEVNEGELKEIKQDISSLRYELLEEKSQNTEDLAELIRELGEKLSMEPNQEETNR
The test is described as follows: TRPC6 calcium flux assay (FLIPR, OAG-stimulated calcium influx). The test is classed as cell-based. Conditions: HEK293 cells stably transfected with human TRPC6, read-out: hTRPC6 Potency. The method, boiled down:
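IC50 derived by plotting background-corrected peak fluorescence (180 s window, normalized to OAG-triggered signal vs buffer) against dose. Stable human TRPC6 HEK293 line was dye-loaded, exposed to compound 25 min, then challenged with 50 uM final OAG in 2 mM Ca2+ HEPES buffer pH 7.2, 0.5% DMSO.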
For orientation: A change in cytosolic calcium serves as a functional read-out for many receptors and channels.

The structures appear in SMILES notation. Structures can show the parent of a compound that is named as a salt.

As for `COc1ccc2nc(N3CCC[C@H](N)C3)n(Cc3ccc(C#N)cc3)c2n1` [Example 404, (S)-4-((2-(3-aminopiperidin-1-yl)-5-methoxy-3H-imidazo[4,5-b]pyridin-3-yl)methyl)benzonitrile hydrochloride], the IC50 was 1.67 nM.
Regarding `N#Cc1ccc(Cn2c(N3CCC(F)(F)[C@H](N)C3)nc3ccc(Cl)cc32)cc1` [Example 405], the IC50 stood at 0.708 nM.
Under `COc1ccc2nc(N3CCC(F)(F)[C@H](N)C3)n(Cc3ccc(C#N)cc3)c2c1` [Example 406, (R)-4-((2-(3-amino-4,4-difluoropiperidin-1-yl)-6-methoxy-1H-benzo[d]imidazol-1-yl)methyl)benzonitrile] stands 0.447 nM.
As for `N#Cc1ccc(Cn2c(N3CCC(F)(F)[C@H](N)C3)nc3c(Cl)cccc32)cc1` [Example 407, (R)-4-((2-(3-amino-4,4-difluoropiperidin-1-yl)-4-chloro-1H-benzo[d]imidazol-1-yl)methyl)benzonitrile], the figure is 5.85 nM; as for `N#Cc1ccc(Cn2c(N3CC[C@@H](F)[C@H](N)C3)nc3c(Cl)cccc32)cc1` [Example 408, 4-((2-((3R,4R)-3-amino-4-fluoropiperidin-1-yl)-4-chloro-1H-benzo[d]imidazol-1-yl)methyl)benzonitrile], 0.924 nM; as for `N#Cc1ccc(Cn2c(N3CC[C@H](F)[C@H](N)C3)nc3c(Cl)cccc32)cc1` [Example 409], 1.04 nM.
Under `COc1cccc2c1nc(N1CCC(F)(F)[C@H](N)C1)n2Cc1ccc(C#N)cc1` [Example 410, (R)-4-((2-(3-amino-4,4-difluoropiperidin-1-yl)-4-methoxy-1H-benzo[d]imidazol-1-yl)methyl)benzonitrile] stands 10.5 nM.
Consider `COc1cccc2c1nc(N1CC[C@@H](F)[C@H](N)C1)n2Cc1ccc(C#N)cc1` [Example 411, 4-((2-((3R,4R)-3-amino-4-fluoropiperidin-1-yl)-4-methoxy-1H-benzo[d]imidazol-1-yl)methyl)benzonitrile], for which the IC50 is 2.68 nM.
Under `N#Cc1ccc(Cn2c(N3CC[C@@H](F)[C@H](N)C3)nc3cnccc32)cc1` [Example 412, 4-((2-((3R,4R)-3-amino-4-fluoropiperidin-1-yl)-1H-imidazo[4,5-c]pyridin-1-yl)methyl)benzonitrile] stands 322 nM; under `N#Cc1ccc(Cn2c(N3CC[C@@H](F)[C@H](N)C3)nc3ccncc32)cc1` [Example 413, 4-((2-((3R,4R)-3-amino-4-fluoropiperidin-1-yl)-3H-imidazo[4,5-c]pyridin-3-yl)methyl)benzonitrile], 221 nM.
For `N#Cc1ccc(Cn2c(N3CC[C@@H](F)[C@H](N)C3)nc3ncccc32)cc1` [Example 417, 4-((2-((3R,4R)-3-amino-4-fluoropiperidin-1-yl)-1H-imidazo[4,5-b]pyridin-1-yl)methyl)benzonitrile], the IC50 came to 12.7 nM.
As for `N#Cc1ccc(Cn2c(N3CCC[C@H](N)C3)nc3c(Cl)cccc32)cc1` [Example 418, (S)-4-((2-(3-aminopiperidin-1-yl)-4-chloro-1H-benzo[d]imidazol-1-yl)methyl)benzonitrile 2,2,2-trifluoroacetate], the figure is 0.584 nM; as for `N#Cc1ccc(Cn2c(N3CCC[C@H](N)C3)nc3cccnc32)cc1` [Example 419, (S)-4-((2-(3-aminopiperidin-1-yl)-3H-imidazo[4,5-b]pyridin-3-yl)methyl)benzonitrile hydrochloride], 128 nM; as for `N#Cc1ccc(Cn2c(N3CC[C@@H](F)[C@H](N)C3)nc3ccc(Cl)cc32)cc1` [Example 420, 4-((2-((3R,4R)-3-amino-4-fluoropiperidin-1-yl)-6-chloro-1H-benzo[d]imidazol-1-yl)methyl)benzonitrile hydrochloride], 0.6 nM.
As for `N#Cc1ccc(Cn2c(N3CCC[C@H](N)C3)nc3ccc(Cl)cc32)cc1` [Example 421, (S)-4-((2-(3-aminopiperidin-1-yl)-6-chloro-1H-benzo[d]imidazol-1-yl)methyl)benzonitrile], the figure is 0.54 nM; as for `N#Cc1ccc(Cn2c(N3CCC[C@H](N)C3)nc3cc(Cl)ccc32)cc1` [Example 422, (S)-4-((2-(3-aminopiperidin-1-yl)-5-chloro-1H-benzo[d]imidazol-1-yl)methyl)benzonitrile], 2.35 nM.
On to `N#Cc1ccc2c(c1)CC[C@H]2n1c(N2CCC[C@H](N)C2)nc2ccccc21` [Example 423, (R)-1-(2-((S)-3-aminopiperidin-1-yl)-1H-benzo[d]imidazol-1-yl)-2,3-dihydro-1H-indene-5-carbonitrile], for which the IC50 came to 151 nM.
Under `N#Cc1ccc2c(c1)CC[C@@H]2n1c(N2CCC[C@H](N)C2)nc2ccccc21` [Example 424, (S)-1-(2-((S)-3-aminopiperidin-1-yl)-1H-benzo[d]imidazol-1-yl)-2,3-dihydro-1H-indene-5-carbonitrile] stands 0.707 nM; under `COc1ccc(Cn2c(N3CC[C@@H](F)[C@H](N)C3)nc3ccccc32)nc1` [Example 425, (3R,4R)-4-fluoro-1-(1-((5-methoxypyridin-2-yl)methyl)-1H-benzo[d]imidazol-2-yl)piperidin-3-amine], 113 nM; under `N#CC1CN(C(=O)Cn2c(N3CC[C@@H](F)[C@H](N)C3)nc3cc(F)c(F)cc32)C1` [Example 426, 1-(2-(2-((3R,4R)-3-amino-4-fluoropiperidin-1-yl)-5,6-difluoro-1H-benzo[d]imidazol-1-yl)acetyl)azetidine-3-carbonitrile], 933 nM.
For `CC(C)(C)OC1CN(C(=O)Cn2c(N3CC[C@@H](F)[C@H](N)C3)nc3cc(F)c(F)cc32)C1` [Example 427, 2-(2-((3R,4R)-3-amino-4-fluoropiperidin-1-yl)-5,6-difluoro-1H-benzo[d]imidazol-1-yl)-1-(3-(tert-butoxy)azetidin-1-yl)ethan-1-one], the IC50 was over 1750 nM.
As for `N[C@@H]1CN(c2nc3cc(F)c(F)cc3n2CC(=O)N2CC(F)(F)C2)CC[C@H]1F` [Example 428, 2-(2-((3R,4R)-3-amino-4-fluoropiperidin-1-yl)-5,6-difluoro-1H-benzo[d]imidazol-1-yl)-1-(3,3-difluoroazetidin-1-yl)ethanone], the IC50 turned out to be 18.3 nM.
As for `CC(C)C1CN(C(=O)Cn2c(N3CC[C@@H](F)[C@H](N)C3)nc3cc(F)c(F)cc32)C1` [Example 429, 2-(2-((3R,4R)-3-amino-4-fluoropiperidin-1-yl)-5,6-difluoro-1H-benzo[d]imidazol-1-yl)-1-(3-isopropylazetidin-1-yl)ethanone], the figure is over 3750 nM; as for `N[C@@H]1CN(c2nc3cc(F)c(F)cc3n2CC(=O)N2CC3(C2)CC(F)(F)C3)CC[C@H]1F` [Example 430, 2-(2-((3R,4R)-3-amino-4-fluoropiperidin-1-yl)-5,6-difluoro-1H-benzo[d]imidazol-1-yl)-1-(6,6-difluoro-2-azaspiro[3.3]heptan-2-yl)ethanone], 880 nM; as for `N[C@@H]1CN(c2nc3cc(F)c(F)cc3n2CC(=O)N2CC3(CCOCC3)C2)CC[C@H]1F` [Example 431, 2-(2-((3R,4R)-3-amino-4-fluoropiperidin-1-yl)-5,6-difluoro-1H-benzo[d]imidazol-1-yl)-1-(7-oxa-2-azaspiro[3.5]nonan-2-yl)ethanone], over 3750 nM.
As for `CN[C@@H]1CN(c2nc3ccc(F)cc3n2Cc2ccc(C#N)cn2)CCC1(F)F` [Example 432, (R)-6-((2-(4,4-difluoro-3-(methylamino)piperidin-1-yl)-6-fluoro-1H-benzo[d]imidazol-1-yl)methyl)nicotinonitrile], the figure is 7.77 nM; as for `N#Cc1ccc(Cn2c(N3CCC(F)(F)[C@H](NCCO)C3)nc3ccc(F)cc32)nc1` [Example 433, (R)-6-((2-(4,4-difluoro-3-((2-hydroxyethyl)amino)piperidin-1-yl)-6-fluoro-1H-benzo[d]imidazol-1-yl)methyl)nicotinonitrile], over 3750 nM; as for `N[C@H]1CCCN(c2nc3ccccc3n2Cc2ccc(C(=O)O)cn2)C1` [Example 434, (S)-6-((2-(3-aminopiperidin-1-yl)-1H-benzo[d]imidazol-1-yl)methyl)nicotinic acid], over 3750 nM.
As for `NC(=O)c1ccc(Cn2c(N3CC[C@@H](F)[C@H](N)C3)nc3ccccc32)nc1` [Example 436, 6-((2-((3R,4R)-3-amino-4-fluoropiperidin-1-yl)-1H-benzo[d]imidazol-1-yl)methyl)nicotinamide], the figure is 52.4 nM.

For the origin of these results see patent US11332459B2 (TEIJIN PHARMA LIMITED, priority 2017, dated 2022).
